Literature values, collected in patent US20170327462A1, “(Z)-3,4,5-TRIMETHOXYSTYRYLBENZENESULFONAMIDES AS POTENTIAL ANTICANCER AGENTS” (COUNCIL OF SCIENTIFIC & INDUSTRIAL RESEARCH, priority 2014, published 2017).

Test system: tubulin
Settings: binding at colchicine binding site; J. Med. Chem. 2008, 51, 6211; cited from earlier work

With `COc1cc(/C=C\c2ccc(OC)c(N)c2)cc(OC)c1` [(Z)-5-(3,5-dimethoxystyryl)-2-methoxyaniline] as the molecule, how does the “inhibition of tubulin polymerization relative to CA-4” value read?
Its value is “five times stronger than CA-4”.
